Like-named read-outs stand apart in the source and are kept apart here.
Assays:
[1] = test system: K562 (chronic myelogenous leukemia; leukemia cell line +ve for Bcr-Abl); test: Cytotoxicity assay, K562 tumor cells; type: cell-based; conditions: Homo sapiens, K562, 96 h treatment
Experimental: (§1) The effect of the compounds of the invention on tumor cells was determined by the assay described by Latham et al., Oncogene 12:827-837 (1996). Tumor cells K562 (chronic myelogenous leukemia; leukemia cell line +ve for Bcr-Abl) or DU145 (prostate cancer) were plated in 12-well dishes at a cell density of 2.5×10^4 cells well. The plated cells were treated 24 hours later with a compound of the invention dissolved in DMSO at multiple concentrations ranging from 0.01 μM to 100 μM. The plates were examined 96 hours later under an inverted microscope, Olympus CK-2 using a 10× objective, and compound activity was noted by physical observation. When necessary, the total number of viable cells was determined by trypsinizing the wells and counting the number of viable cells, as determined by trypan blue exclusion, using a hemacytometer. Where “Lower” and “Upper” value are provided in Table 5, the IC50 was determined to be within that range. When only a “Lower” value is provided and no “Upper” value is listed, the IC50 was that value, or less than or greater than that value, as set forth in the Table.
(§2) The cytotoxicity of Compound 42, (Z)-6-((2,6-dichlorobenzyl)sulfonyl)-2-(4-hydroxy-3-nitrobenzylidene)-2H-benzo[b][1,4]thiazin-3(4H)-one, was determined according the assay method of Example 7 on the prostate (androgen dependent or independent), breast and pancreatic cancer cell lines listed in Table 6A, below, and the additional cell lines listed in Table 6B, below. The human mesenchymal stem cell line HMSC.hTERT and normal human fibroblast cell line HFL was included in the test.

DU145 (prostate cancer) = test: Cytotoxicity assay, DU145 tumor cells; type: cell-based; conditions: Homo sapiens, DU-145, 96 h treatment
Experimental: as §1, §2

[2] = lower limit of the IC50 range, or the IC50 itself (or its bound) where no Upper value is listed, read-out: K562 IC50 (μm) Lower (μm)
[3] = upper limit of the IC50 range, read-out: K562 IC50 (μm) Upper (μm)
[4] = lower limit of the IC50 range, or the IC50 itself (or its bound) where no Upper value is listed, read-out: DU145 IC50 (μm) Lower (μm)
[5] = upper limit of the IC50 range, read-out: DU145 IC50 (μm) Upper (μm)

Structure (SMILES): O=C1Nc2cc(S(=O)(=O)Cc3c(Cl)cccc3Cl)ccc2S/C1=C\c1cccs1 [Compound 33, (Z)-6-((2,6-dichlorobenzyl)sulfonyl)-2-(thiophen-2-ylmethylene)-2H-benzo[b][1,4]thiazin-3(4H)-one]
- IC50 [1, 2]: ≥ 500 nM
- IC50 [1, 3]: ≤ 1000 nM
- IC50 (DU145 (prostate cancer); [4]): ≥ 500 nM
- IC50 (DU145 (prostate cancer); [5]): ≤ 1000 nM

Structure (SMILES): COC(=O)c1ccc(/C=C2\Sc3ccc(S(=O)(=O)Cc4c(Cl)cccc4Cl)cc3NC2=O)c([N+](=O)[O-])c1 [Compound 35, (Z)-methyl 4-((6-((2,6-dichlorobenzyl)sulfonyl)-3-oxo-3,4-dihydro-2H-benzo[b][1,4]thiazin-2-ylidene)methyl)-3-nitrobenzoate]
- IC50 [1, 2]: ≥ 1000 nM
- IC50 [1, 3]: ≤ 10000 nM
- IC50 (DU145 (prostate cancer); [4]): > 10000 nM

Structure (SMILES): CSc1nccc(/C=C2\Sc3ccc(S(=O)(=O)Cc4c(Cl)cccc4Cl)cc3NC2=O)n1 [Compound 36, (Z)-6-((2,6-dichlorobenzyl)sulfonyl)-2-((2-(methylthio)pyrimidin-4-yl)methylene)-2H-benzo[b][1,4]thiazin-3(4H)-one]
- IC50 [1, 2]: > 2500 nM
- IC50 (DU145 (prostate cancer); [4]): 2000 nM

Structure (SMILES): O=C1Nc2cc(S(=O)(=O)Cc3c(Cl)cccc3Cl)ccc2S/C1=C\c1ccnc(N2CCOCC2)n1 [Compound 37, (Z)-6-((2,6-dichlorobenzyl)sulfonyl)-2-((2-morpholinopyrimidin-4-yl)methylene)-2H-benzo[b][1,4]thiazin-3(4H)-one]
- IC50 [1, 2]: ≥ 1000 nM
- IC50 [1, 3]: ≤ 10000 nM
- IC50 (DU145 (prostate cancer); [4]): ≥ 1000 nM
- IC50 (DU145 (prostate cancer); [5]): ≤ 10000 nM

Structure (SMILES): Cc1ccc(S(=O)(=O)Oc2ccc(/C=C3\Sc4ccc(S(=O)(=O)Cc5c(Cl)cccc5Cl)cc4NC3=O)cc2[N+](=O)[O-])cc1 [Compound 38, (Z)-4-((6-((2,6-dichlorobenzyl)sulfonyl)-3-oxo-3,4-dihydro-2H-benzo[b][1,4]thiazin-2-ylidene)methyl)-2-nitrophenyl 4-methylbenzenesulfonate]
- IC50 [1, 2]: 100 nM
- IC50 (DU145 (prostate cancer); [4]): 90 nM

Structure (SMILES): O=C1Nc2cc(S(=O)(=O)Cc3c(Cl)cccc3Cl)ccc2S/C1=C\c1ccc(-c2nn[nH]n2)cc1 [Compound 39, (Z)-2-(4-(2H-tetrazol-5-yl)benzylidene)-6-((2,6-dichlorobenzyl)sulfonyl)-2H-benzo[b][1,4]thiazin-3(4H)-one]
- IC50 [1, 2]: ≥ 1000 nM
- IC50 [1, 3]: ≤ 10000 nM
- IC50 (DU145 (prostate cancer); [4]): ≥ 1000 nM
- IC50 (DU145 (prostate cancer); [5]): ≤ 10000 nM

Structure (SMILES): COc1ccc2c(c1)S/C(=C\c1ccc(OC(C)=O)c([N+](=O)[O-])c1)C(=O)N2C(C)=O [Compound 40, (Z)-4-((4-acetyl-7-methoxy-3-oxo-3,4-dihydro-2H-benzo[b][1,4]thiazin-2-ylidene)methyl)-2-nitrophenyl acetate]
- IC50 [1, 2]: 1500 nM
- IC50 (DU145 (prostate cancer); [4]): 2000 nM

Structure (SMILES): O=C1Nc2cc(S(=O)(=O)Cc3c(Cl)cccc3Cl)ccc2S/C1=C\c1ccc(OCc2ccccc2)c([N+](=O)[O-])c1 [Compound 41, (Z)-2-(4-(benzyloxy)-3-nitrobenzylidene)-6-((2,6-dichlorobenzyl)sulfonyl)-2H-benzo[b][1,4]thiazin-3(4H)-one]
- IC50 [1, 2]: 750 nM
- IC50 (DU145 (prostate cancer); [4]): 1500 nM

Structure (SMILES): O=C1Nc2ccc(F)cc2S/C1=C\c1ccc(OCc2ccccc2)c([N+](=O)[O-])c1 [Compound 43, (Z)-2-(4-(benzyloxy)-3-nitrobenzylidene)-7-fluoro-2H-benzo[b][1,4]thiazin-3(4H)-one]
- IC50 [1, 2]: > 10000 nM
- IC50 (DU145 (prostate cancer); [4]): > 10000 nM

Structure (SMILES): O=C1Nc2ccc(F)cc2S/C1=C\c1ccc(O)c([N+](=O)[O-])c1 [Compound 44, (Z)-7-fluoro-2-(4-hydroxy-3-nitrobenzylidene)-2H-benzo[b][1,4]thiazin-3(4H)-one]
- IC50 [1, 2]: 250 nM
- IC50 (DU145 (prostate cancer); [4]): 750 nM

Reference: patent US9242945B2, “Substituted 2-benzylidene-2H-benzo[b][1,4]thiazin-3(4H)-ones, derivatives thereof, and therapeutic uses thereof” (TEMPLE UNIVERSITY—OF THE COMMONWEALTH SYSTEM OF HIGHER …, priority 2011, dated 2016)
